The term IC50 denotes the concentration that gives 50% inhibition.

The target of the first test is G-protein coupled receptor 52 (Homo sapiens, UniProt Q9Y2T5). Description: Antagonist activity at GPR52 (unknown origin) expressed in HEK293 cells assessed as inhibition of WO459-induced cAMP accumulation preincubated for 15 mins followed by WO459 addition and measured after 30 mins by LANCE Ultra cAMP kit based microplate reader analysis. It is filed as functional, cell-based. The conditions noted are these: hek293.
Chain of G-protein coupled receptor 52 (Q9Y2T5 whole entry): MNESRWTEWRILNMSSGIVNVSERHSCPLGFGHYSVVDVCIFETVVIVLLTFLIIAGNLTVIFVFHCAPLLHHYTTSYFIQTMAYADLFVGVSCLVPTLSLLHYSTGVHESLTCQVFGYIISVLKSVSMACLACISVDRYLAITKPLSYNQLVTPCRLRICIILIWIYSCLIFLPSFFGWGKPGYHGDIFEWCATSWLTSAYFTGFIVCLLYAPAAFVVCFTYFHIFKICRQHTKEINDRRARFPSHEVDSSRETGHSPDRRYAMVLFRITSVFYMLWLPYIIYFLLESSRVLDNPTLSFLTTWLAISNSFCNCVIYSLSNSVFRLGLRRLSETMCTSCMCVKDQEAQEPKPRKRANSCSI
Turning to `CC/C=C/C(=O)c1ccccc1`, the IC50 result is “Not Active”.

In the case of `O=C(/C=C/CCc1ccccc1)c1ccc(F)cc1`, the 50% inhibitory concentration (IC50) entry was “Not Active”.

Regarding `O=C(/C=C/CCc1ccccc1)N1CCCCC1`, the IC50 entry was “Not Active”.

The same test, now with this note: read-out: IC50.
Take `Cc1ccc(C(=O)/C=C/CCc2ccccc2)cc1`: the IC50 stood at 3020 nM.

Take `Cc1cccc(C)c1C(=O)/C=C/CCc1ccccc1`: the concentration for half-maximal inhibition (IC50) came out at 2820 nM.

Consider `O=C(/C=C/CCc1ccccc1)c1ccccc1-c1ccccc1`, for which the concentration for half-maximal inhibition (IC50) amounted to 1230 nM.

As to `COc1ccc(C(=O)/C=C/CCc2ccccc2)cc1`, the IC50 turned out to be 3870 nM.

For `Cc1ccccc1C(=O)/C=C/CCc1ccccc1`, the IC50 came to 2630 nM.

In the case of `O=C(/C=C/CCc1ccccc1)c1cccc2ccccc12`, the half-inhibitory concentration (IC50) amounted to 3290 nM.

For the compound `O=C(/C=C/CCc1ccccc1)c1cccc(F)c1`, the IC50 is 2370 nM.

As for `COc1ccccc1C(=O)/C=C/CCc1ccccc1`, the IC50 stood at 1720 nM.

`O=C(/C=C/CCc1ccc(Br)cc1)c1ccccc1`: the half-maximal inhibitory concentration (IC50) was 1810 nM.

Regarding `O=C(/C=C/CCc1ccccc1Br)c1ccccc1`, the IC50 was 1640 nM.

For the compound `O=C(/C=C/CCc1ccccc1)c1ccccn1`, the half-inhibitory concentration (IC50) was 1820 nM.

For `O=C(/C=C/CCc1ccccc1)c1ccc(-c2ccccc2)cc1`, the half-inhibitory concentration (IC50) amounted to 7640 nM.

`O=C(/C=C/CCc1ccccc1)c1ccoc1`: the IC50 came to 1520 nM.

In the case of `O=C(/C=C/CCc1ccccc1)c1ccccc1F`, the half-inhibitory concentration (IC50) was 1760 nM.

Take `O=C(/C=C/CCc1ccccc1)c1cccc(-c2ccccc2)c1`: the IC50 was found to be 8130 nM.

`O=C(/C=C/CCc1ccccc1)c1ccc2ccccc2c1`: the half-inhibitory concentration (IC50) was 3540 nM.

`Cc1cccc(C(=O)/C=C/CCc2ccccc2)c1`: the IC50 was 2570 nM.

Take `O=C(/C=C/CCc1ccccc1)CCc1ccccc1`: the 50% inhibitory concentration (IC50) worked out at 5450 nM.

`COc1cccc(C(=O)/C=C/CCc2ccccc2)c1`: the IC50 was found to be 1490 nM.

The values are drawn from ChEMBL document CHEMBL4706623, “GPR52 Antagonist Reduces Huntingtin Levels and Ameliorates Huntington's Disease-Related Phenotypes” (J Med Chem, 2021).
